Test results from patent US9850521B2 (Agilent Technologies, Inc., priority 2014, dated 2017).
Entries after “also recorded” stand apart in the source; their conditions may differ.

Molecular target: Cas9 (Streptococcus pyogenes serotype M1, UniProt Q99ZW2)
Assay: Cas9 plasmid DNA cleavage assay, testing of surfactants
Assay type: biochemical
Details: for effect on Cas9 enzyme activity: FIG. 4, versus absence of surfactants/detergents, two RNA guides; for % cleavage: linearized pKan-C1 substrate DNA, 30 min at 30° C.
Method: The reactions were stopped by heat inactivation of the enzyme at 65° C. for 15 minutes. Cleavage reactions were analyzed by Agilent Tape Station using Genomic Screen Tapes.
Reaction mixtures were incubated at 30° C. for 30 minutes followed by heat inactivation of the enzyme. Table 1 lists the surfactants/detergents used at various concentrations and the resulting DNA template cleavage percentage.

Cas9, sequence (Q99ZW2 whole entry): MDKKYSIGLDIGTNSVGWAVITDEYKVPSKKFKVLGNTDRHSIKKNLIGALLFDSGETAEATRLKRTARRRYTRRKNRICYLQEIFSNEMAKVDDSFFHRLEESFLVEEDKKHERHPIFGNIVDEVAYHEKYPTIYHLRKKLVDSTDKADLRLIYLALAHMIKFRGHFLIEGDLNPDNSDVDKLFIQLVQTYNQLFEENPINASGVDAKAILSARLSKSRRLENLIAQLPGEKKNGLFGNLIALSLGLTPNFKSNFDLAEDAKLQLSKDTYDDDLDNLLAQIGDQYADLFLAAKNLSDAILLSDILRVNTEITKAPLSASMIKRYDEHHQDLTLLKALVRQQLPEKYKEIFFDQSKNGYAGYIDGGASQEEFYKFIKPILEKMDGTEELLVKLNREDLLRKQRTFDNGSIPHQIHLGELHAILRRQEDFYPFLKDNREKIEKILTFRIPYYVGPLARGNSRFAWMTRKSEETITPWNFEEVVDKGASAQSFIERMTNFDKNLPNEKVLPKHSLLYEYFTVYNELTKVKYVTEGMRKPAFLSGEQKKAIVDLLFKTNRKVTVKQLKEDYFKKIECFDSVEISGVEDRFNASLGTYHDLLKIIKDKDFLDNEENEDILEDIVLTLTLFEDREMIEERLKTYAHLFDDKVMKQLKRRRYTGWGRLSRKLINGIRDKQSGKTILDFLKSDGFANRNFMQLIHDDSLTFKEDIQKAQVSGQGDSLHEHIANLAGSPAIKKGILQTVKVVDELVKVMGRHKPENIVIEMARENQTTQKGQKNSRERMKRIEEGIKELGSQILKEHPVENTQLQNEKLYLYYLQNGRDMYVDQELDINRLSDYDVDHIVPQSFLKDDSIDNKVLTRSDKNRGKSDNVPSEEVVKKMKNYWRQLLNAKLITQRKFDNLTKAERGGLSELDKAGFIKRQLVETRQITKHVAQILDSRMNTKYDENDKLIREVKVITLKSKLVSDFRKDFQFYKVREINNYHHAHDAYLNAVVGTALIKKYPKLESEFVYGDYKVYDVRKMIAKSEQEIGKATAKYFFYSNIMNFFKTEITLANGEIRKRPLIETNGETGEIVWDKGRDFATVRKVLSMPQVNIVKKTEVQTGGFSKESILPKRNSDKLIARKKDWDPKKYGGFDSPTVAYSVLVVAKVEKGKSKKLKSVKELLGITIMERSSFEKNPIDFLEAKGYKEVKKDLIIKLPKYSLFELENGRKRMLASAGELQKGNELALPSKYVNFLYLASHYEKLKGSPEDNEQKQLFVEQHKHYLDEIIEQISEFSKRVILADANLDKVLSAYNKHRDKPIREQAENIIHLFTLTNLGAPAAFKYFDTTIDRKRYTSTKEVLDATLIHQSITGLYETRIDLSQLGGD

C[C@H](CCC(=O)NCCC[N+](C)(C)CC(O)CS(=O)(=O)[O-])[C@H]1CC[C@H]2[C@@H]3[C@H](O)C[C@@H]4C[C@H](O)CC[C@]4(C)[C@H]3C[C@H](O)[C@]12C (stereo partly drawn) [Chapso, reference compound]
effect on Cas9 enzyme activity: had no effect on Cas9 activity
% cleavage (Guide 601, detergent 0.025%): 0.52%
% cleavage (Guide 601, detergent 0.05%): 0.50%
% cleavage (Guide 601, detergent 0.1%): 0.51%
% cleavage (Guide 601, detergent 0.2%): 0.54%
% cleavage (Kan C1 Guide, detergent 0.025%): 0.43%
% cleavage (Kan C1 Guide, detergent 0.05%): 0.43%
% cleavage (Kan C1 Guide, detergent 0.1%): 0.45%
% cleavage (Kan C1 Guide, detergent 0.2%): 0.44%

octylphenoxypolyethoxyethanol [Triton X 100]
effect on Cas9 enzyme activity: improved enzyme activity; also recorded: significantly increased Cas9 activity
% cleavage (Guide 601, detergent 0.025%): 0.60%
% cleavage (Guide 601, detergent 0.05%): 0.60%
% cleavage (Guide 601, detergent 0.1%): 0.59%
% cleavage (Guide 601, detergent 0.2%): 0.65%
% cleavage (Kan C1 Guide, detergent 0.025%): 0.54%
% cleavage (Kan C1 Guide, detergent 0.05%): 0.51%
% cleavage (Kan C1 Guide, detergent 0.1%): 0.52%
% cleavage (Kan C1 Guide, detergent 0.2%): 0.61%
